Some test systems named below: DMS 273 small cell lung; LXFL 529 NSCLC; HOP-18 NSCLC; SNB-78 CNS; RXF-631 renal.
Common to all, as to assay: NCI anticancer screen, dose series, 48 h

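Results reflect a 48-hour exposure of cells in 96-well plates to compound at five concentrations. TGI denotes the concentration required for complete inhibition of growth.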

For `COC(=O)C1=CCC2c3[nH]c4ccccc4c3CCN2C1` (configuration not stated), the TGI with DMS 273 small cell lung and in the assay on LXFL 529 NSCLC was above 354 µM in each case.
In the case of `CC(C)C(CCOS(=O)(=O)O)CCC(C)[C@H]1[C@@H](O)C(O)C2[C@]3(O)C[C@@H](O)C4(O)C[C@@H](O)CC[C@]4(C)C3CC[C@@]21C` (some centres not stated), the TGI in the assay with DMS 273 small cell lung, in the assay on HOP-18 NSCLC, in the assay with SNB-78 CNS and in the assay with LXFL 529 NSCLC was above 100 µM in each case.
Consider `CC#CC#C/C=C1\C=CC2(OC=CC2O)O1` (configuration not stated), for which the TGI is above 23.3 µM in the assay on DMS 273 small cell lung, 14.9 µM in the assay on HOP-18 NSCLC, above 7.37 µM with SNB-78 CNS and above 23.3 µM in the assay on LXFL 529 NSCLC.
Turning to `CSC1=Nc2ccccc2N=C(c2ccccc2)C1`, the TGI in the assay with DMS 273 small cell lung, with HOP-18 NSCLC, in the assay on SNB-78 CNS, in the assay with RXF-631 renal and in the assay with LXFL 529 NSCLC was above 100 µM throughout.
As to `C/C(CCN(C)C)=N\OC(=O)c1ccccc1`, the TGI in the assay with DMS 273 small cell lung was above 100 µM; in the assay on HOP-18 NSCLC, 8.9 µM; with SNB-78 CNS it was above 100 µM; with LXFL 529 NSCLC it was above 100 µM.
`C=C1CN2CCc3c([nH]c4ccccc34)C2CC1CC(=O)N(C)C` (configuration not stated): the TGI in the assay with DMS 273 small cell lung, in the assay on HOP-18 NSCLC and in the assay on LXFL 529 NSCLC was above 309 µM each time.
Molecule `CC1CCc2c(sc3ncnc(N/N=C/c4ccc(Cl)cc4)c23)C1` (configuration not stated) gave a TGI with DMS 273 small cell lung above 100 µM.
As for `Cn1c(=O)n(C2(C)CSC2)c2ccccc21`, the TGI with DMS 273 small cell lung and in the assay with LXFL 529 NSCLC was above 100 µM in each case.
On to `N#C/C(=C\c1ccc[nH]1)C(=O)c1ccccc1`, for which the TGI in the assay with DMS 273 small cell lung, in the assay on HOP-18 NSCLC, in the assay with SNB-78 CNS, with RXF-631 renal and in the assay with LXFL 529 NSCLC was above 100 µM throughout.
On to `COc1ccc(-c2cc(=O)c3cc(O)ccc3o2)c(OC)c1OC`, for which the TGI in the assay on RXF-631 renal and with LXFL 529 NSCLC was above 100 µM each time.

(Values after PubChem BioAssay (NCI).)
